Measured values as given in US12702715B2, “Targeted RNA degradation allows precision repurposing of protein-targeted small molecule medicines to RNA” (University of Florida Research Foundation, Incorporated, priority 2020, dated 2026).
“Also recorded” adds a separate entry of the source.

What was measured:
Type in all cases: cell-based, human
pre-miR-21 = assay: RT-qPCR of pre-miR-21 levels in MDA-MB-231 cells; conditions: for pre-miR-21 levels: MDA-MB-231, RT-qPCR
Procedure: (§1) Cell Culture. Cells were cultured at 37° C. and 5% CO2. MDA-MB-231 cells (HTB-26, ATCC) were cultured in RMPI 1640 medium with L-glutamine & 25 mM HEPES supplemented with 1× Antibiotic/Antimycotic solution (Corning) and 10% FBS. MCF-10A cells (CRL-10317, ATCC) were cultured in 1×DMEM/F12 50/50 with L-glutamine & 15 mM HEPES (Corning) supplemented with 20% FBS, 1× Antibiotic/Antimycotic solution, 20 ng/mL human epidermal growth factor (Pepro Tech, Inc.), 10 μg/mL insulin (Sigma-Aldrich), and […] hydrocortisone (Pfaltz & Bauer). For compound treatment, compound stocks either in DMSO or water were diluted in growth medium and added to cells for the indicated time. Plasmid DNA to overexpress pre-miR-21 in pcDNA 3.1 (Addgene 21114) or a plasmid DNA encoding the pre-miR-21 mutant (custom purchased from GenScript USA, Inc.) was transfected with jetPRIME per the manufacturer's protocol. After transfection, the medium was replaced with growth medium containing the compound of interest, prepared as described above. The RNase L-targeting siRNA or a control siRNA was transfected with Lipofectamine RNAiMAX reagent (Invitrogen) per the manufacturer's protocol.
(§2) RNA Isolation and Quantitative Real-Time PCR (RT-qPCR). After treatment, total RNA was extracted and purified by using the Zymo Quick-RNA mini prep kit per the manufacturer's protocol. Reverse Transcription (RT) for mature miRNAs as well as pri- and pre-miR-21 was completed on 200 ng of RNA by using a miScript 11 RT kit (QIAGEN) according to manufacturer's protocol. RT of mRNAs was performed by using QScript kit (Quanta Bio). An Applied Biosystems QS5 384-well PCR system was used to complete qPCR experiments using Power Sybr Green Mater Mix (Life Technologies) as described previously^6.

miR-21 = assay: RT-qPCR of mature miR-21 levels in MDA-MB-231 cells; conditions: for reduction of mature miR-21 levels: 1 μM; for mature miR-21 levels: MDA-MB-231, RT-qPCR
Procedure: Cell Culture. Cells were cultured at 37° C. and 5% CO2. […] For compound treatment, compound stocks either in DMSO or water were diluted in growth medium and added to cells for the indicated time. […] After transfection, the medium was replaced with growth medium containing the compound of interest, prepared as described above. The RNase L-targeting siRNA or a control siRNA was transfected with Lipofectamine RNAiMAX reagent (Invitrogen) per the manufacturer's protocol.
as §2

MCF-10A cells = assay: Boyden chamber invasion assay, MCF-10A; conditions: for invasion phenotype of MCF-10A acquired by transfection of mutant pre-miR-21: 1 binding site ablated
Procedure: as §1
Boyden Chamber Invasion Assay. MDA-MB-231 or MCF-10A cells (5×10^4) in serum free growth medium with or without compound treatment were seeded into hanging cell culture inserts (for 24-well plates) pre-coated with Matrigel. Complete growth medium was added to the bottom well. After 16-24 h, the medium was removed, and the hanging inserts were washed with 1×DPBS twice and then fixed with 4% paraformaldehyde in 1×DPBS at room temperature for 20 min. Then the inserts were washed twice with 1×DPBS and stained with 0.1% (w/v) crystal violet 1×DPBS for 20 min. The inserts were washed twice with nanopure water and once with 1×DPBS. Cells on the surface of the Matrigel (non-invasive) were removed with cotton swabs and invading cells were counted and imaged under a microscope.

Row | Compound | pre-miR-21 levels (pre-miR-21) | competition of cleavage of pre-miR-21 by RIBOTAC 2 (pre-miR-21; constant concentration of 2 (1 μM), increasing competitor) | reduction of mature miR-21 levels (miR-21; MDA-MB-231) | decrease of mature miR-21 levels (miR-21; 5 μM dose, MDA-MB-231) [%] | mature miR-21 levels (miR-21) | invasion phenotype of MCF-10A acquired by transfection of wild type pre-miR-21 (MCF-10A cells) | invasion phenotype of MCF-10A acquired by transfection of mutant pre-miR-21 (MCF-10A cells) | invasive nature of MCF-10A cells (MCF-10A cells; no overexpression) | cleavage of pre-miR-21 upon knock down of RNase L with an siRNA (pre-miR-21; MDA-MB-231) | concentration giving a reduction of mature miR-21 similar to 5 μM of 1 (miR-21; MDA-MB-231) [nM] | fold increase in potency / miR-21 inhibitory activity compared with 1 (miR-21; MDA-MB-231) [fold]
1 | CN1CCN(c2ccc3nc(-c4c(N)c5c(F)cccc5[nH]c4=O)[nH]c3c2)CC1 [Compound 1, Dovitinib, reference compound] | increased; also recorded: enhanced | competed away cleavage | not reduced | 32±4 | significantly reducing mature miR-21 levels; also recorded: reduced | reverted this phenotype; also recorded: inhibited | insensitive | had no effect | – | – | –
2 | CCOC(=O)C1=C(Nc2ccccc2)S/C(=C\c2ccc(OCCOCCOCCOCCNC(=O)NCCN3CCN(c4ccc5[nH]c(-c6c(N)c7c(F)cccc7[nH]c6=O)nc5c4)CC3)c(O)c2)C1=O [Compound 2, Ribotac-Dovitinib] | decreased; also recorded: reduced | – | ~ 45±9% | – | reduced | – | had no effect; also recorded: unable to rescue | – | reduced; also recorded: repressed cleavage | 200 | 25
3 | C#CCCC1(CCC(=O)NCCN2CCN(c3ccc4[nH]c(-c5c(N)c6c(F)cccc6[nH]c5=O)nc4c3)CC2)N=N1 [Compound 4] | increases | – | – | – | decreases | – | – | – | – | – | –
